These results are taken from US10045972B2, “Hydroxypyridone derivatives, pharmaceutical compositions thereof, and their therapeutic use for treating inflammatory, neurodegenerative, or immune-mediated diseases” (BioTheryX, Inc., priority 2014, dated 2018).

In data set [1] the test system is MO3-13 cells. Kind of data set: Protection of differentiated MO3-13 cells against TNF-α toxicity (Kinetic Apoptosis Kit, live cell fluorescence microscopy). It is filed as cell-based. Particulars: 1 μM ciclopirox with human TNF-α protein 30 ng/mL; images after 1, 15 and 72 hrs, FIG. 3. The procedure:
The protective effects of ciclopirox on MO3-13 cells against TNF-α toxicity was also determined. MO3-13 cells were grown in 6 well dishes and allowed to adhere overnight. Cells were grown to 70% confluence and then differentiated into oligodendrocyte-like cells by removal of FBS from DMEM medium for 48 hrs. Cells were treated with vehicle (no treatment); human TNF-α protein (30 ng/mL); 1 μM ciclopirox; and a combination of 1 μM ciclopirox and human TNF-α protein (30 ng/mL). Cells were treated with Abcam's Kinetic Apoptosis Kit (Microscopy) prior to live cell fluorescence microscopy imaging using an inverted Zeiss epi-fluorescent microscope. Merged images of phase contrast, green (pSIVA-IANBD) and red (PI) fluorescence were captured after 1 hr, 15 and 72 hrs in cell culture.

Data set [2] relates to myelin basic protein (MBP) in MO3-13 cells. As to the kind of experiment: Induction of myelin basic protein (MBP) production in MO3-13 cells (slot blot, anti-MBP). It is filed as cell-based, human. Here is the method: Dilutions (0.1 mg/mL) of MO3-13 whole cell extracts were prepared and the proteins (5 μg) from the dilutions were blotted onto nitrocellulose membrane using a slot blotter. The non-protein sites on the blot were blocked with 2% ECL block in PBS-Tween20. Primary […] was diluted in block solution at 300×. The primary antibody was incubated overnight at 4° C. with gentle shaking. The following day the blot was developed using enhanced ECL (GE Healthcare) method. Image of bound antibody were captured using Image Lab software driving a Bio-Rad ChemiDoc XRS+ image capture system.

The subject of data set [3] is primary human oligodendrocytes. Kind of data set: Protection from cuprizone toxicity, primary human oligodendrocytes, live cell images. As to conditions: 24 hrs, FIG. 7. Here is the method:
Cells were weaned off with fetal bovine serum containing differentiation medium (Celprogen) up to 25 days in culture. The cells were exposed to either no treatment (Vehicles=ethanol and DMSO); compound A1 ranging in dosage of 2, 5 and 10 μM; cuprizone (50 μM) (Sigma Aldrich) or a combination of compound A1 and cuprizone (50 μM). Cells were treated for 24 hrs, after which images were captured of live cells using an inverted Zeiss microscope.

The test system of data set [4] is TNF-α secretion from human primary glioblastoma cells (U87). Kind of data set: Reduction of TNF-α secretion from U87 cells (slot blot of conditioned media). In kind it is cell-based. As to conditions: compound at 10 μM, 48 hrs, FIG. 1. Here is the method: TNF-α secretion was measured using U87 cell line. Cells were distributed into 6 well dishes and allowed to adhere overnight. When cells were confluent, they were treated with 6-cyclohexyl-1-hydroxy-4-methyl-1H-pyridine-2-thione A1 at 10 μM in each dish, wherein compound A1 was solubilized in neat DMEM. Cells were exposed to the compound for 48 hrs. Conditioned media was collected and assayed for TNF-α using mouse monoclonal to TNF-α (Abcam 52B83, Cambridge, Mass.). Conditioned media (100 μL) was applied to each slot. The nitrocellulose filter membrane was blocked with ECL advanced block (2% in Tris buffered saline with Tween-20 (0.05%)) for 1 hr with gentle shaking at room temperature. Primary mouse anti-TNF-α (Abcam 52B83) was diluted 1,000× in the blocking solution. Primary antibodies were applied to blots and incubated overnight at 4° C. with gentle shaking. Blots were developed using enhanced ECL (GE Healthcare) method. Images of bound antibodies were captured using Image Lab software driving a Bio-Rad ChemiDoc XRS+ image capture system.

The subject of data set [5] is primary human oligodendrocytes. As to the kind of experiment: Protection from cuprizone toxicity, primary human oligodendrocytes, MITOTRACKER and immunocytochemistry. In kind it is cell-based. As to conditions: MITOTRACKER (red), green channel, nuclei (blue), FIGS. 8 and 9. Here is the method:
MITOTRACKER® (100 nM) was incubated with the live cells at 37° C. for 30 min. MITOTRACKER® labeling of mitochondria was assessed using a Zeiss inverted microscope. Following MITOTRACKER® treatment, cells were processed for immunocytochemistry. Cells grown on human oligodendrocyte extracellular matrix coated cover slips (Celprogen) were fixed with fixing solution containing 0.1% gluteraldehyde, 2% paraformaldehyde, 80 mM Pipes, 5 mM EGTA, pH 8.0, 1 mM MgCl2, and 0.5% Triton-X100. The cells were fixed for 7 min at 37° C. The cells on cover slips were washed and then blocked with 2% bovine serum albumin (BSA) for 1 hr. Primary antibodies were diluted in 2% BSA and incubated on the cover glass for 1 hr in a humid chamber. Following incubation, cover slips were washed and then incubated for 1 hr with species-specific secondary antibodies conjugated with fluorescent label or with biotin. After washing, slides were incubated with streptavidin conjugated with fluorescein fluorescent labels for 40 min. Cover slips were washed again and mounted with DABCO mountant. Fluorescently labeled cells were visualized with a Zeiss epi-fluorescent microscope. Data collected was for MITOTRACKER® (red channel) and MBP (green channel). Nuclei are labeled with DAPI (blue channel).

The test system of data set [6] is human oligodendrocytes (MO3-13). Kind of data set: TNF-α toxicity on MO3-13 cells and protection (Trypan blue cell counts). In kind it is cell-based. As to conditions: cells exposed to LD50 human TNF-α protein, FIG. 2. The procedure:
MO3-13 cells were grown in 6 well dishes (100,000 cells per dish) and allowed to adhere overnight. Cells were treated with increasing amounts of human recombinant TNF-α protein (Abcam Ab9642). Cells either treated with increasing amounts of TNF-α protein or with vehicle (PBS) were allowed to grow for additional 24 hrs, after which MO3-13 cells were trypsinized and counted using Trypan blue and a Nebauer hemocytometer. Mean cell counts were plotted graphically against TNF-α concentrations. The LD50 of human TNF-α was determined to be 30 ng/mL on MO3-13 cells. The protective effects of compound A1 on MO3-13 cells that were exposed to LD50 human TNF-α protein were then determined and the results are shown in FIG. 2.

The test system of data set [7] is MO3-13 cells. Kind of data set: Protection of MO3-13 cells from cuprizone toxicity (phase contrast). It is filed as cell-based, human. Particulars: compound 5 μM, cuprizone 50 μM, 24 hrs, FIG. 5. The procedure:
The protective effects of compound A1 on MO3-13 cells from cuprizone toxicity was then determined. […] Cuprizone at a final concentration of 50 μM was solubilized in 100% ethanol was added to selected dishes with and without compound A1 (5 μM) in DMSO.

Data set [8] has as its system primary mouse oligodendrocytes. As to the kind of experiment: Protection from cuprizone toxicity, primary mouse oligodendrocytes, MITOTRACKER and immunocytochemistry. As to conditions: MITOTRACKER (red) and beta-catenin (green), FIG. 6. It is filed as cell-based. The procedure:
Stock MITOTRACKER® (Molecular Probes) was diluted with DMSO to a final concentration of 1 mM. MITOTRACKER® (100 nM) was incubated with the live cells at 37° C. for 30 min. MITOTRACKER® labeling of mitochondria was assessed using a Zeiss inverted microscope. Following MITOTRACKER® treatment, cells were processed for immunocytochemistry. Cells grown on mouse oligodendrocyte extracellular matrix coated cover slips (Celprogen) were fixed with fixing solution containing 0.1% gluteraldehyde, 2% paraformaldehyde, 80 mM Pipes, 5 mM EGTA, pH 8.0, 1 mM MgCl2, and 0.5% Triton-X100. The cells were fixed for 7 min at 37° C. The cells on cover slips were washed and then blocked with 2% bovine serum albumin (BSA) for 1 hr. Primary antibodies were diluted in 2% BSA and incubated on the cover glass for 1 hr in a humid chamber. Following incubation, cover slips were washed and then incubated for 1 hr with species-specific secondary antibodies conjugated with fluorescent label or with biotin. After washing, slides were incubated with streptavidin conjugated with fluorescein fluorescent labels for 40 min. Cover slips were washed again and mounted with DABCO mountant. Fluorescently labeled cells were visualized with a Zeiss epi-fluorescent microscope. Data collected was for MITOTRACKER® (red channel) and beta-catenin (green channel).

Structures are written as SMILES. “Also recorded” adds a separate entry of the source.

Take `Cc1cc(C2CCCCC2)n(O)c(=O)c1` [ciclopirox]: in data set [1], the “protection of MO3-13 cells against TNF-α toxicity” value is “protection; also recorded: protective up to 72 hrs”.

Regarding `Cc1cc(C2CCCCC2)n(O)c(=S)c1` [compound A1, 6-cyclohexyl-1-hydroxy-4-methyl-1H-pyridine-2-thione], in data set [2] (MO3-13 cells treated with Cpz and compound, p<0.001, FIG. 10), the “MBP bound by anti-MBP (induction of MBP production)” value was “induction of myelin basic protein (MBP) production; also recorded: significantly higher”. Also, in data set [2] (MO3-13 cells treated with compound alone, p<0.001, FIG. 10), the “MBP bound by anti-MBP” value was “significantly higher”. Besides, the “protection of primary human oligodendrocytes against cuprizone toxicity” value in data set [3] (compound 2, 5 and 10 μM with cuprizone 50 μM, live cell images) is recorded as “protection; also recorded: appears to be protective at various dosings”; in data set [5], “protection”. Also, the “reduction of TNF-α secretion” value in data set [4] is listed as “reduction of TNF-α secretion”. In data set [6], the “protection of MO3-13 cells against TNF-α toxicity” value is given as “protection”. Moreover, the “protection of MO3-13 cells against cuprizone toxicity” value in data set [7] is on record as “protection”. Further, the “protection of primary mouse oligodendrocytes against cuprizone toxicity” value in data set [8] is “protection”.

With `O=C(NN=C1CCCCC1)C(=O)NN=C1CCCCC1` [cuprizone, reference compound], in data set [2] (MO3-13 cells treated with Cpz alone, FIG. 10), the “anti-MBP antibody binding compared with non-treated (NT) cells” value is listed as “reduced anti-MBP antibody binding”. Further, the “toxicity of cuprizone to primary human oligodendrocytes” value in data set [3] (cuprizone 50 μM alone) was “toxic”.
